Here are results for twelve molecules from patent US9301951B2 (Ardelyx, Inc., priority 2010, dated 2016).

This experiment addresses T1, rat NaP2b (SLC34A2) (Rattus norvegicus, UniProt Q9JJ09).
T1 construct: host or cells: HEK293
T1 sequence (Q9JJ09 1-695): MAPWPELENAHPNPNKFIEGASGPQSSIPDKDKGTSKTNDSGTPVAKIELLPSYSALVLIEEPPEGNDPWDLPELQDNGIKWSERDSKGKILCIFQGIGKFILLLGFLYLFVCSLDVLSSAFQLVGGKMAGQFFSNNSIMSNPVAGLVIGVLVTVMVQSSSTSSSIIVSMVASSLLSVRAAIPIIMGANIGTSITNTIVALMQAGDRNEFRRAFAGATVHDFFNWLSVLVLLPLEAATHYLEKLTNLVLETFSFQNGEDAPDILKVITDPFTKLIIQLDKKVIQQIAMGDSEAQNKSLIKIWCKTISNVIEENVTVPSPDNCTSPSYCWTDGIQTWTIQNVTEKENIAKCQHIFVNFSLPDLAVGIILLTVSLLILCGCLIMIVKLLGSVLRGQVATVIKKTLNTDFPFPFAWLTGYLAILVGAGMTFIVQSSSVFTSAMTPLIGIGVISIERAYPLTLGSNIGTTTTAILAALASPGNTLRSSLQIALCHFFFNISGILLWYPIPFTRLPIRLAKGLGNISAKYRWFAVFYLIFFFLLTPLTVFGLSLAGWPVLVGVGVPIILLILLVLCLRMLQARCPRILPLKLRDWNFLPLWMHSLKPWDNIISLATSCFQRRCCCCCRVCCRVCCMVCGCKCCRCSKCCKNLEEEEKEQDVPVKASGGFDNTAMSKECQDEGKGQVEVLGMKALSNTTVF
Description: Inhibition of NaP2b-mediated Pi (33P) uptake in transfected HEK293 cells, rat NaP2b. The following applies: HEK293 cells transfected with rat NaP2b, 100 uM phosphate, 0.1 nM to 30 uM, read-out: pIC50 range for rat Nap2b (converted). The experiment is classed as cell-based. Here is the method: HEK293 cells were obtained from the American Type Culture collection and propagated per their instructions. Expression clones for rat and human NaP2b (SLC34A2) were obtained from Open Biosystems (Catalog numbers MRN1768-9510282, and MHS1010-99823026, respectively). The sequence of the human protein was mutated to insert a threonine after residue 37, and to introduce a N39D mutation.
Cells were seeded into 96-well plates at 25,000 cells/well and cultured overnight. Lipofectamine 2000 (Invitrogen) was used to introduce the NaP2b cDNA, and the cells were allowed to approach confluence during a second overnight incubation. […] Cells were then overlayed with either choline uptake buffer or sodium uptake buffer (14 mM Tris, 137 mM sodium chloride, 5.4 mM KCl, 2.8 mM CaCl2, 1.2 mM MgSO4, 100 uM KH2PO4, PiT-silencing agent, 1 mg/mL Bovine Serum Albumin, pH 7.4) containing 6-9 uCi/mL ^33P orthophosphoric acid (Perkin Elmer) and test compound. Each compound was tested at twelve concentrations ranging from 0.1 nM to 30 uM. Assays were run in duplicate.
Cells were lysed by addition of 20 μL 0.1% Tween 80 followed by 100 μL scintillation fluid, and counted using a TopCount (Perkin Elmer).
pIC50 (the negative log of the […]) values of the test compounds were calculated using GraphPad Prism.
`CC(=O)NC1CCN(Cc2cccc(C(=O)Nc3ccc(N4CCCCC4)cc3-c3cc(C(=O)NCc4cccc(C(F)(F)F)c4)ccn3)c2)C1` (stereo in doubt) [Example 48, (S)-2-(2-(3-((3-Acetamidopyrrolidin-1-yl)methyl)benzamido)-5-(piperidin-1-yl)phenyl)-N-(3-(trifluoromethyl)benzyl)isonicotinamide]: the IC50 is 1 to 7.94 µM.

Turning to `O=C(O)CCSCc1cccc(C(=O)Nc2ccc(N3CCCCC3)cc2-c2cc(C(=O)NCc3ccccc3)ccn2)c1` [Example 1.4], the IC50 is 1 to 7.94 µM.

In the case of `O=C(O)CCSCc1cccc(C(=O)Nc2ccc(N3CCCCC3)cc2-c2cc(C(=O)N3CCCC3c3ccccc3)ccn2)c1` (stereo not drawn) [Example 1.9], the IC50 was 10 to 31.6 µM.

Take `O=C(O)CCSCc1cccc(C(=O)Nc2ccc(N3CCCCC3)cc2-c2cc(C(=O)NCCCCCCCCCCCCNC(=O)c3ccnc(-c4cc(N5CCCCC5)ccc4NC(=O)c4cccc(CSCCC(=O)O)c4)c3)ccn2)c1` [Example 2]: the IC50 was 10 to 31.6 µM.

Regarding `O=C(O)CCSCc1cccc(C(=O)Nc2ccc(N3CCCCC3)cc2-c2cc(C(O)CCc3ccccc3)ccn2)c1` (stereo not drawn) [Example 6.1, 3-((3-((2-(4-(1-hydroxy-3-phenylpropyl)pyridin-2-yl)-4-(piperidin-1-yl)phenyl)carbamoyl)benzyl)thio)propanoic acid], the IC50 is 10 to 31.6 µM.

Turning to `CC(C)Oc1ccc(NC(=O)c2cccc(CSCCC(=O)O)c2)c(-c2cc(C(=O)NCc3cccc(C(F)(F)F)c3)ccn2)c1` [Example 15, 3-((3-((4-Isopropoxy-2-(4-((3-(trifluoromethyl)benzyl)carbamoyl)pyridin-2-yl)phenyl)carbamoyl)benzyl)thio)propanoic acid], the IC50 was 1 to 7.94 µM.

In the case of `COCCN(CCOC)c1ccc(NC(=O)c2cccc(CSCCC(=O)O)c2)c(-c2cc(C(=O)NCc3cccc(C(F)(F)F)c3)ccn2)c1` [Example 17, 3-(3-((2-(4-((3-(trifluoromethyl)benzyl)carbamoyl)pyridin-2-yl)-4-(bis(2-methoxyethyl)amino)phenyl)carbamoyl)benzylthio)propanoic acid], the IC50 was 1 to 7.94 µM.

On to `O=C(O)CCSCc1cccc(C(=O)Nc2ccc(F)cc2-c2cc(C(=O)NCc3cccc(C(F)(F)F)c3)ccn2)c1` [Example 18, 3-((3-((4-Fluoro-2-(4-((3-(trifluoromethyl)benzyl)carbamoyl)pyridin-2-yl)phenyl)carbamoyl)benzyl)thio)propanoic acid], for which the IC50 was 1 to 7.94 µM.

Regarding `CCCN(CCC)c1ccc(NC(=O)c2cccc(CSCCC(=O)O)c2)c(-c2cc(C(=O)NCc3cccc(C(F)(F)F)c3)ccn2)c1` [Example 19, 3-((3-((4-(Dipropylamino)-2-(4-((3-(trifluoromethyl)benzyl)carbamoyl)pyridin-2-yl)phenyl)carbamoyl)benzyl)thio)propanoic acid], the IC50 is 1 to 7.94 µM.

For `O=C(O)CCSCc1cccc(C(=O)Nc2ccc(N3CCCC3)cc2-c2cc(C(=O)NCc3cccc(C(F)(F)F)c3)ccn2)c1` [Example 20, 3-((3-((4-(Pyrrolidin-1-yl)-2-(4-((3-(trifluoromethyl)benzyl)carbamoyl)pyridin-2-yl)phenyl)carbamoyl)benzyl)thio)propanoic acid], the IC50 is 1 to 7.94 µM.

In the case of `O=C(O)CCSCc1cccc(C(=O)Nc2ccccc2-c2cc(C(=O)NCc3cccc(C(F)(F)F)c3)ccn2)c1` [Example 22, 3-((3-((2-(4-((3-(Trifluoromethyl)benzyl)carbamoyl)pyridin-2-yl)phenyl)carbamoyl)benzyl)thio)propanoic acid], the IC50 is 10 to 31.6 µM.

Turning to `CN(CCN1CCOCC1)C(=O)c1cccc(C(=O)Nc2ccc(N3CCCCC3)cc2-c2cc(-c3cn(Cc4ccccc4)nn3)ccn2)c1` [Example 24, N1-(2-(4-(1-Benzyl-1H-1,2,3-triazol-4-yl)pyridin-2-yl)-4-(piperidin-1-yl)phenyl)-N3-methyl-N3-(2-morpholinoethyl)isophthalamide], the IC50 is 1 to 7.94 µM.
